Consider 1 molecule from patent publication US7959948B2, “Pharmaceutical composition of quetiapine fumarate” (Synthon BV, priority 2007, dated 2011).

Where a name gives a salt, the structure may show the parent alone.

The conditions of data set [1]: white crystalline powder; cited from earlier work.
The nature of another data set: physchem. The text has this: The composition preferably comprises an acid, preferably fumaric acid.

`OCCOCCN1CCN(C2=Nc3ccccc3Sc3ccccc32)CC1` [Quetiapine fumarate, 2-[2-(4-dibenzo[b,f] [1,4]thiazepin-11-yl-1-piperazinyl)ethoxy]ethanol]: the solubility in water entry in data set [1] was “moderately soluble in water”. In addition, the solubility in “physchem” (pH 1, simulated gastric fluid) is 35.8 mg/mL; in “physchem” (pH 6.2, aqueous buffer) it was 4.6 mg/mL.
